From patent US7872018B2, “Compounds and methods for kinase modulation, and indications therefor” (Plexxikon, Inc., priority 2006, dated 2011)

Legend:
B-Raf = B-Raf (Homo sapiens, UniProt P15056); assay: B-Raf kinase activity assay; assay type: biochemical; conditions: under the test conditions employed; read-out: IC50 toward kinase B-Raf
Flt1 = Flt1 (Homo sapiens, UniProt P17948); assay: Flt1 kinase activity assay; assay type: biochemical; conditions: under the test conditions employed; read-out: IC50 toward kinase Flt1
TrkA = target: T1, TrkA (Homo sapiens, UniProt P04629); assay: TrkA biochemical assay (AlphaScreen); conditions: under the test conditions employed; read-out: IC50 toward kinase TrkA
T1 construct: purchased Upstate Biotech 14-571
T1 sequence (P04629 33-796): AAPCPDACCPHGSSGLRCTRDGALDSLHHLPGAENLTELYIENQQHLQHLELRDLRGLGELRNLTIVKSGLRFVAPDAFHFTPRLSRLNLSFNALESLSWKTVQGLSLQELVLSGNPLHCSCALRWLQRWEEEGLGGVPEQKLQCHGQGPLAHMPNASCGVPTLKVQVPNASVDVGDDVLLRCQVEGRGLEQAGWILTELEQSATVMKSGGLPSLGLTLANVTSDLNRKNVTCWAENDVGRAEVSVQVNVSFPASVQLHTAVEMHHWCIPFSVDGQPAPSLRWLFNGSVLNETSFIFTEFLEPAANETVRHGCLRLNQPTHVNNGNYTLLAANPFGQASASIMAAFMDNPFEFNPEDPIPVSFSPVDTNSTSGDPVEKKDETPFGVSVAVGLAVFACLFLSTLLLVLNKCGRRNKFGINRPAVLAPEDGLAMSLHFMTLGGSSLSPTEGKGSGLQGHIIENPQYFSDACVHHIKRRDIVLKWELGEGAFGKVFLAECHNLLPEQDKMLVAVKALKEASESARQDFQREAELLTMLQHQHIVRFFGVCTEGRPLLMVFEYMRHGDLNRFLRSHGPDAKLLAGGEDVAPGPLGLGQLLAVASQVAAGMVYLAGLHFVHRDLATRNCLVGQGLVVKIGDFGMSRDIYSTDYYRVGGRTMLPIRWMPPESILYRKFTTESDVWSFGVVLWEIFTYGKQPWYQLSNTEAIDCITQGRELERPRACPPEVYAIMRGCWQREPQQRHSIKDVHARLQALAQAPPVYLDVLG
Description: Compounds tested were dissolved in DMSO (1 μL) and added to a white 384-well plate (Costar #3705). […] Each sample was at 5% DMSO. The plate was then incubated for 40 minutes at room temperature.

HGK = HGK (Homo sapiens, UniProt O95819); assay: HGK (MAP4K4) biochemical assay (AlphaScreen); conditions: under the test conditions employed; read-out: IC50 toward kinase HGK
HGK, sequence (O95819 whole entry): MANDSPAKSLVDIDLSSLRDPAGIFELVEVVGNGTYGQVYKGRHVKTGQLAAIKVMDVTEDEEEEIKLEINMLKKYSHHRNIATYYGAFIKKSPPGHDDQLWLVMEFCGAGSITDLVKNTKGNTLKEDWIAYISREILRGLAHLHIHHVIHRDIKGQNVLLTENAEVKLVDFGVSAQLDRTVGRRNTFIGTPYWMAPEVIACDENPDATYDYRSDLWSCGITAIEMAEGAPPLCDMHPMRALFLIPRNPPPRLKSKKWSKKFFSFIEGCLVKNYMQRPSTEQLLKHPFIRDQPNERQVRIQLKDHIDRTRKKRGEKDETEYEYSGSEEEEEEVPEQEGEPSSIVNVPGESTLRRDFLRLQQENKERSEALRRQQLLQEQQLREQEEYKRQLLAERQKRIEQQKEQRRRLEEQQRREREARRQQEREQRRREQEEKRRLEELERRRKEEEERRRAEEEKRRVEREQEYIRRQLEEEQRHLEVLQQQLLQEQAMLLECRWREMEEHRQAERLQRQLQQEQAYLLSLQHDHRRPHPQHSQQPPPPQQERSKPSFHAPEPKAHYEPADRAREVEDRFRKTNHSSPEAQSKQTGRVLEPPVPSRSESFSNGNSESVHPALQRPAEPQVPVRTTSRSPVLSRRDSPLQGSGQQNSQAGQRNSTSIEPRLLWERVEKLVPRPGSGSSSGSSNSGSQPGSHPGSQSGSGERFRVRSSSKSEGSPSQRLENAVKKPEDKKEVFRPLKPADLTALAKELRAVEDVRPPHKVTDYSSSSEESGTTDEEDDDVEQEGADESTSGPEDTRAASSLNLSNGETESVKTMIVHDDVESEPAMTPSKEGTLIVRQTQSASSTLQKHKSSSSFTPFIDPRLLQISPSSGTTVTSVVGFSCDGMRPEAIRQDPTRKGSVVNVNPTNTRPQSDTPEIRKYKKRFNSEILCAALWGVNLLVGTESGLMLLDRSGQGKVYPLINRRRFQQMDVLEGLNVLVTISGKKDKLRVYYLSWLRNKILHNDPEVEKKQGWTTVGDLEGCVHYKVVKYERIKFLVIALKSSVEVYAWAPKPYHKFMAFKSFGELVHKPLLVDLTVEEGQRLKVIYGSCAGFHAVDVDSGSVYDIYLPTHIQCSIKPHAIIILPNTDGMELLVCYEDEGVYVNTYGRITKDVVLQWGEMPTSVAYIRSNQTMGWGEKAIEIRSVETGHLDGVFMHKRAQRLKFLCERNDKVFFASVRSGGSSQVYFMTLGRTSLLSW
Description: Substrate was 10 nM biotin-ERM (T567/T564/T558, Cell Signaling, Inc., cat#1344). MAP4K4 kinase was at 0.5 ng per sample. After incubation of the kinase reaction for 40 min at room temperature, 5 μl of donor beads and protein A acceptor beads (Perkin Elmer Life Science, cat#67606017) at final concentration 1 μg/ml in stop buffer (20 mM Tris, pH 7.4, 200 mM Nacl, 100 mM EDTA, 0.03% BSA) was added, along with Phospho-ERM Antibody (T567/T564/T558, Cell Signaling, Inc., cat#3141) at 1:1000 dilution. […] Phosphorylated substrate results in binding of the antibody which binds to protein A acceptor bead and association of the donor and acceptor beads is such that the signal correlates with kinase activity.

Fms = target: T2, Fms (Homo sapiens, UniProt P07333); assay: Fms biochemical assay (AlphaScreen or 33P-ATP); conditions: under the test conditions employed; read-out: IC50 toward kinase Fms
T2 construct: purchased Upstate Biotech 14-551
Description: Each sample was at 5% DMSO.

Kdr = Kdr (Homo sapiens, UniProt P35968); assay: Kdr kinase activity assay; assay type: biochemical; conditions: under the test conditions employed; read-out: IC50 toward kinase Kdr
Kdr, sequence (P35968 20-1356): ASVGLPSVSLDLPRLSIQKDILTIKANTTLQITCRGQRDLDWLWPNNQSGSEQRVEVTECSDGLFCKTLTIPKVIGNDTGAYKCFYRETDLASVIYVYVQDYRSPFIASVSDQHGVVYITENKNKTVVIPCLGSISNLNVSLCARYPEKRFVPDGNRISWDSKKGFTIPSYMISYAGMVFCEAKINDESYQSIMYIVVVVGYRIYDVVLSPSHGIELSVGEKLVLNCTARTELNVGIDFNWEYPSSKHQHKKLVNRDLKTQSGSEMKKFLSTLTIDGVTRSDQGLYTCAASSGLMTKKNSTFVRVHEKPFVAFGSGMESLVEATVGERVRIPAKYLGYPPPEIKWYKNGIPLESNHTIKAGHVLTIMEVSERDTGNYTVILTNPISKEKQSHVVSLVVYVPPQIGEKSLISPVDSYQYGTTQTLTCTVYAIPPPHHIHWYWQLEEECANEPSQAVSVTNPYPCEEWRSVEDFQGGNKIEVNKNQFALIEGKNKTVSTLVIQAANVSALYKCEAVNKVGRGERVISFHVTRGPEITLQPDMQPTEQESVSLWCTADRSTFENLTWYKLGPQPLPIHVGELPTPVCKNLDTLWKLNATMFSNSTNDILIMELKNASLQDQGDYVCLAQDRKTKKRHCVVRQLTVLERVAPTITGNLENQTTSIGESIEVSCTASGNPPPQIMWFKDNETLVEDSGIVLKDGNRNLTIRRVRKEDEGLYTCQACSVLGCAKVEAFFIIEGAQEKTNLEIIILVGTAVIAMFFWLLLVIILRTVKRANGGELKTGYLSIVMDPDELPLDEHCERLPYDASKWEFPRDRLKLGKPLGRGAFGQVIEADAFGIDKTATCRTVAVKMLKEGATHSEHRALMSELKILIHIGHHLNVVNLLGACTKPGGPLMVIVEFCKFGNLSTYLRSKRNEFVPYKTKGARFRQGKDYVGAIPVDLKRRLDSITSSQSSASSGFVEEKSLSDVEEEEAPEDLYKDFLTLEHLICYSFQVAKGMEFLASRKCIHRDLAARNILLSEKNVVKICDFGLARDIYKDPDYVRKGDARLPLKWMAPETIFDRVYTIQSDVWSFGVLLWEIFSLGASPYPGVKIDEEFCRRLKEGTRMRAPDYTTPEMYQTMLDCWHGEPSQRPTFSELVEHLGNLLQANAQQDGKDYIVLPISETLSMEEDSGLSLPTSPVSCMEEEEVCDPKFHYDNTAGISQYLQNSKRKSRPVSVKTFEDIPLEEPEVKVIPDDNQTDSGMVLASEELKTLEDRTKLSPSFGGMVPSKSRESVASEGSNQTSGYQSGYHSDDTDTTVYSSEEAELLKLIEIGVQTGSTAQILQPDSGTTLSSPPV

Kit = target: T3, Kit (Homo sapiens, UniProt P10721); assay: c-kit biochemical assay (AlphaScreen or 33P-ATP); conditions: under the test conditions employed; read-out: IC50 toward kinase Kit
T3 construct: P1332.N6 BI PTP KIT M552-K948-X COD; made in house; host or cells: E. coli BL21(DE3)RIL, co-expressed with PTP1B
T3 sequence (P10721 552-948): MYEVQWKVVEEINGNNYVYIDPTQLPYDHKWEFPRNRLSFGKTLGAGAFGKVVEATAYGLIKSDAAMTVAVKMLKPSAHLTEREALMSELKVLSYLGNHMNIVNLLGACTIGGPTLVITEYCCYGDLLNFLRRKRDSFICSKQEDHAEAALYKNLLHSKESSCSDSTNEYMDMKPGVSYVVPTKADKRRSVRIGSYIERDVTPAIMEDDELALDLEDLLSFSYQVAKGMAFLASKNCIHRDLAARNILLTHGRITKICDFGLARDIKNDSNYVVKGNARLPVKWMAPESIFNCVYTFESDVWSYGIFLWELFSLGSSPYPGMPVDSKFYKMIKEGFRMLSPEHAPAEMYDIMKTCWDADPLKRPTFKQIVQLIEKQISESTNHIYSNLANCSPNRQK
Description: C-kit kinase was at 1 ng per sample.
The c-kit enzyme used in the above assay was either obtained from Cell Signaling Technology (Cat. #7754) or was prepared as follows: A plasmid encoding kit (DNA and encoded protein sequences shown below) was engineered using common polymerase chain reaction (PCR) methods. Complementary DNA cloned from various human tissues were purchased from Invitrogen, and these were used as substrates in the PCR reactions. Specific custom synthetic oligonucleotide primers were designed to initiate the PCR product, and also to provide the appropriate restriction enzyme cleavage sites for ligation with the plasmids. The entire sequence encoding the enzyme was made through a gene synthesis procedure, using custom synthetic oligonucleotides covering the entire coding sequence (Invitrogen, see below).

B-Raf V600E = B-Raf V600E (Homo sapiens, UniProt P15056, V600E); assay: B-Raf V600E kinase activity assay; assay type: biochemical; conditions: under the test conditions employed; read-out: IC50 toward kinase B-Raf V600E
B-Raf V600E, sequence (P15056 whole entry V600E): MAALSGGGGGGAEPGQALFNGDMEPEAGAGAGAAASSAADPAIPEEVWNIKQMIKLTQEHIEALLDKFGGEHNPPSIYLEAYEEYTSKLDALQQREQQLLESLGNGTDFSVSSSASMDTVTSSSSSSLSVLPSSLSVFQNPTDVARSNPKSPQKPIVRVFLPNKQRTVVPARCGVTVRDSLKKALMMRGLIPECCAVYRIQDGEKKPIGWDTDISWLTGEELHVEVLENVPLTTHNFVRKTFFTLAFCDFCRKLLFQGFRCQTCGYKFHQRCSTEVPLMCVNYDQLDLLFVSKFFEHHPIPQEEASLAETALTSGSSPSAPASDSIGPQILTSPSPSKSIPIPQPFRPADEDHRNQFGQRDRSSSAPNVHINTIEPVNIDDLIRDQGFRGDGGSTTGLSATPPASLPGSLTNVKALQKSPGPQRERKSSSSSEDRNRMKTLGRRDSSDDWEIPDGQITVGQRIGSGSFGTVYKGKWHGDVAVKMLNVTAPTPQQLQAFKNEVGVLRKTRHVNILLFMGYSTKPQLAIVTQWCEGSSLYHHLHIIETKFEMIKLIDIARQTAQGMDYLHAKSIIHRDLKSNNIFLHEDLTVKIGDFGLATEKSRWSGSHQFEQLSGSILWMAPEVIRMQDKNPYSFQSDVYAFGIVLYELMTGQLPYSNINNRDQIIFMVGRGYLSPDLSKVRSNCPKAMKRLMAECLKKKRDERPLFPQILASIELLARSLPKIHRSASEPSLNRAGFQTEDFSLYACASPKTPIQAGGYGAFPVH

B-Raf, sequence (P15056 whole entry): as the sequence (P15056 whole entry V600E) above, with E600V counted along it

Row | IC50 (B-Raf) [µM] | IC50 (Flt1) [µM] | IC50 (TrkA) [µM] | IC50 (HGK) [µM] | IC50 (Fms) [µM] | IC50 (Kdr) [µM] | IC50 (Kit) [µM] | IC50 (B-Raf V600E) [µM] | SMILES
1 | ≤ 10 | ≤ 10 | ≤ 10 | ≤ 10 | ≤ 10 | – | – | – | CS(=O)(=O)c1cnc2[nH]cc(Cc3cc(F)c(OCc4nc5ccccc5[nH]4)cc3F)c2c1 [P-2170, 2-[2,5-Difluoro-4-(5-methanesulfonyl-1H-pyrrolo[2,3-b]pyridin-3-ylmethyl)-phenoxymethyl]-1H-benzoimidazole]
2 | – | ≤ 10 | ≤ 10 | ≤ 10 | ≤ 10 | ≤ 10 | ≤ 10 | – | Cn1cc(-c2cnc3[nH]cc(Cc4c(F)ccc(OCC(F)(F)F)c4Cl)c3c2)cn1 [P-2146, 3-[2-Chloro-6-fluoro-3-(2,2,2-trifluoro-ethoxy)-benzyl]-5-(1-methyl-1H-pyrazol-4-yl)-1H-pyrrolo[2,3-b]pyridine]
3 | – | – | – | ≤ 10 | ≤ 10 | ≤ 10 | ≤ 10 | – | Fc1cc(OCc2nc3ccccc3[nH]2)cc(F)c1Cc1c[nH]c2ncc(Cl)cc12 [P-2105, 2-[4-(5-Chloro-1H-pyrrolo[2,3-b]pyridin-3-ylmethyl)-3,5-difluoro-phenoxymethyl]-1H-benzoimidazole]
4 | ≤ 10 | – | – | – | ≤ 10 | – | – | ≤ 10 | Clc1ccc(COc2ccc(Cl)c(Cc3c[nH]c4ncccc34)c2Cl)cc1 [P-1768, 3-[2,6-Dichloro-3-(4-chloro-benzyloxy)-benzyl]-1H-pyrrolo[2,3-h]pyridine]
5 | – | ≤ 10 | – | – | ≤ 10 | – | ≤ 10 | ≤ 10 | Clc1ccc(COc2ccc(Cc3c[nH]c4ncccc34)cc2)cc1 [P-1462, 3-[4-(4-Chloro-benzyloxy)-benzyl]-1H-pyrrolo[2,3-b]pyridine]
6 | ≤ 10 | – | – | – | ≤ 10 | – | – | – | COc1cc(Cc2c[nH]c3ncccc23)cc(Cl)c1OCc1ccc(Cl)cc1 [P-1616, 3-[3-Chloro-4-(4-chloro-benzyloxy)-5-methoxy-benzyl]-1H-pyrrolo[2,3-b]pyridine]
7 | – | ≤ 10 | ≤ 10 | ≤ 10 | ≤ 10 | ≤ 10 | ≤ 10 | – | COc1cnc2[nH]cc(Cc3cc(F)c(OCc4nc5ccccc5[nH]4)cc3F)c2c1 [P-2101, 2-[2,5-Difluoro-4-(5-methoxy-1H-pyrrolo[2,3-b]pyridin-3-ylmethyl)-phenoxymethyl]-1H-benzoimidazole]
8 | ≤ 10 | – | – | – | ≤ 10 | – | – | ≤ 10 | O=C(c1c(F)ccc(OCc2ccccc2)c1F)c1c[nH]c2ncccc12 [P-1802, (3-Benzyloxy-2,6-difluoro-phenyl)-(1H-pyrrolo[2,3-b]pyridin-3-yl)-methanone]
9 | ≤ 10 | – | – | – | ≤ 10 | – | – | ≤ 10 | O=C(c1c(Cl)ccc(OCc2ccc(Cl)cc2)c1Cl)c1c[nH]c2ncccc12 [P-1769, [2,6-Dichloro-3-(4-chloro-benzyloxy)-phenyl]-(1-pyrrolo[2,3-b]pyridin-3-yl)methanone]
10 | ≤ 10 | – | – | – | ≤ 10 | – | – | ≤ 10 | COc1cc(Cc2c[nH]c3ncccc23)ccc1OCc1ccc(C(F)(F)F)cc1 [P-1721, 3-[3-Methoxy-4-(4-trifluoromethyl-benzyloxy)-benzyl]-1H-pyrrolo[2,3-b]pyridine]
11 | – | – | – | – | ≤ 10 | ≤ 10 | ≤ 10 | – | COc1cc(Cc2c[nH]c3ncc(Cl)cc23)c(Cl)cc1OCc1ccc(Cl)cc1F [P-2167, 5-Chloro-3-[2-chloro-4-(4-chloro-2-fluoro-benzyloxy)-5-methoxy-benzyl]-1H-pyrrolo[2,3-b]pyridine]
12 | – | – | ≤ 10 | ≤ 10 | ≤ 10 | ≤ 10 | ≤ 10 | – | COCCOc1cnc2[nH]cc(Cc3cc(F)c(OCc4nc5ccccc5[nH]4)cc3F)c2c1 [P-2176, 2-{2,5-Difluoro-4-[5-(2-methoxy-ethoxy)-1H-pyrrolo[2,3-b]pyridin-3-ylmethyl]-phenoxymethyl}-1H-benzoimidazole]
13 | ≤ 10 | ≤ 10 | – | – | ≤ 10 | – | ≤ 10 | ≤ 10 | COc1ccc(COc2ccc(Cc3c[nH]c4ncccc34)cc2OC)cc1 [P-1569, 3-[3-Methoxy-4-(4-methoxy-benzyloxy)-benzyl]-1H-pyrrolo[2,3-b]pyridine]
14 | ≤ 10 | – | ≤ 10 | ≤ 10 | ≤ 10 | – | – | ≤ 10 | COc1cc(Cc2c[nH]c3ncc(S(C)(=O)=O)cc23)c(F)cc1OCc1nc2ccccc2[nH]1 [P-2186, 2-[5-Fluoro-4-(5-methanesulfonyl-1H-pyrrolo[2,3-b]pyridin-3-ylmethyl)-2-methoxy-phenoxymethyl]-1H-benzoimidazole]
15 | – | ≤ 10 | – | ≤ 10 | ≤ 10 | ≤ 10 | ≤ 10 | – | COc1cnc2[nH]cc(C(=O)c3c(F)ccc(OCC(F)(F)F)c3Cl)c2c1 [P-2149, [2-Chloro-6-fluoro-3-(2,2,2-trifluoro-ethoxy)-phenyl]-(5-methoxy-1H-pyrrolo[2,3-b]pyridin-3-yl)-methanone]
16 | ≤ 10 | – | – | – | ≤ 10 | – | ≤ 10 | ≤ 10 | COc1cc(Cc2c[nH]c3ncccc23)ccc1OCc1ccc(Cl)cc1Cl [P-1568, 3-[4-(2,4-Dichloro-benzyloxy)-3-methoxy-benzyl]-1H-pyrrolo[2,3-b]pyridine]
17 | – | – | ≤ 10 | ≤ 10 | ≤ 10 | ≤ 10 | ≤ 10 | – | COc1cnc2[nH]cc(Cc3cc(F)c(OCc4nc5ccccc5[nH]4)cc3Cl)c2c1 [P-2114, 2-[5-Chloro-2-fluoro-4-(5-methoxy-1H-pyrrolo[2,3-b]pyridin-3-ylmethyl)-phenoxymethyl]-1H-benzoimidazole]
18 | ≤ 10 | – | ≤ 10 | ≤ 10 | ≤ 10 | – | ≤ 10 | – | COc1cc(Cc2c[nH]c3ncc(Cl)cc23)c(F)cc1OCc1nc2cc(S(=O)(=O)N(C)C)ccc2[nH]1 [P-2173, 2-[4-(5-Chloro-1H-pyrrolo[2,3-b]pyridin-3-ylmethyl)-5-fluoro-2-methoxy-phenoxymethyl]-1H-benzoimidazole-5-sulfonic acid dimethylamide]
19 | – | ≤ 10 | – | – | – | – | ≤ 10 | ≤ 10 | COc1cnc2[nH]cc(Cc3ccc(OCc4ccc(Cl)cc4)c(OC)c3)c2c1 [P-1531, 3-[4-(4-Chloro-benzyloxy)-3-methoxy-benzyl]-5-methoxy-1H-pyrrolo[2,3-b]pyridine]
20 | ≤ 10 | ≤ 10 | – | – | ≤ 10 | – | – | ≤ 10 | COc1cc(Cc2c[nH]c3ncccc23)ccc1OCc1ccccc1 [P-1613, 3-(4-benzyloxy-3-methoxy-benzyl)-1H-pyrrolo[2,3-b]pyridine]
21 | – | – | – | – | ≤ 10 | ≤ 10 | ≤ 10 | – | COCCOc1ccc(F)c(Cc2c[nH]c3ncccc23)c1Cl [P-2158, 3-[2-Chloro-6-fluoro-3-(2-methoxy-ethoxy)-benzyl]-1H-pyrrolo[2,3-b]pyridine]
22 | ≤ 10 | ≤ 10 | – | – | ≤ 10 | – | ≤ 10 | ≤ 10 | COc1cc(Cc2c[nH]c3ncccc23)ccc1OCc1ccc(Cl)cc1F [P-1544, 3-[4-(4-Chloro-2-fluoro-benzyloxy)-3-methoxy-benzyl]-1H-pyrrolo[2,3-b]pyridine]
23 | ≤ 10 | – | ≤ 10 | ≤ 10 | ≤ 10 | ≤ 10 | ≤ 10 | ≤ 10 | Fc1cc(OCc2nc3ccccc3[nH]2)c(F)cc1Cc1c[nH]c2ncc(Cl)cc12 [P-2100, 2-[4-(5-Chloro-1H-pyrrolo[2,3-b]pyridin-3-ylmethyl)-2,5-difluoro-phenoxymethyl]-1H-benzoimidazole]
24 | ≤ 10 | – | – | – | – | – | – | – | O=C(c1c(F)ccc(OCc2ccccc2)c1F)c1c[nH]c2ncc(Cl)cc12 [P-1825, (3-Benzyloxy-2,6-difluoro-phenyl)-(5-chloro-1H-pyrrolo[2,3-b]pyridin-3-yl)-methanone]
